Results as given in PubChem BioAssay (NCI).
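Compound exposure: 48 hours, 5 concentrations, 96-well plates. TGI: concentration producing complete growth inhibition.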

Experiments:
Assay in all cases: NCI tumour cell line growth inhibition, 48 h
786-0 renal = tested on: 786-0 renal
A498 renal = tested on: A498 renal
ACHN renal = tested on: ACHN renal
CCRF-CEM leukemia = tested on: CCRF-CEM leukemia
M14 melanoma = tested on: M14 melanoma
NCI-H226 lung = tested on: NCI-H226 lung
NCI-H23 lung = tested on: NCI-H23 lung
OVCAR-3 ovarian = tested on: OVCAR-3 ovarian
PC-3 prostate = tested on: PC-3 prostate
RXF 393 renal = tested on: RXF 393 renal
SK-MEL-2 melanoma = tested on: SK-MEL-2 melanoma
SK-MEL-28 melanoma = tested on: SK-MEL-28 melanoma
T-47D breast = tested on: T-47D breast

Measured: TGI

COC(=O)/C=C(/C)n1nc2ccccc2n1
> 100 µM: all assays above
